In one assay the test system is HeLa-TI cells. Nature of the assay: Silenced GFP reporter derepression (chromatin destabilization) by microscopy and flow cytometry. In kind it is cell-based. The following applies: dose- and time-dependent. As to the method:
Therefore, a Micrococcal Nuclease (MNase) assay was performed to assess relative chromatin condensation. In this assay, protein-free DNA is digested by MNase, producing DNA fragmentation patterns that are indicators of whether chromatin is in a condensed or relaxed state. […] To assess chromatin destabilization in a living cell, the HeLa-TI cell line model that has a silenced GFP reporter within a heterochromatic region of the genome was utilized. […] Therefore, GFP expression in HeLa-TI cells was monitored upon JTE-607 treatment by both fluorescence microscopy and flow cytometry.

For the next assay, the system named is Panc1 cells. Nature of the assay: Cell cycle analysis (propidium iodide FACS). In kind it is cell-based, human. The following applies: within 24 hours. As to the method:
(§1) Finally, we sought to determine how JTE-607-mediated depletion of RD histones led to defects in cell viability. As RD histones are required for cell cycle progression, we assessed the effects of JTE-607 on cell cycle distribution. […] In contrast, JTE-607 arrested Panc1 and MiaPaCa2 PDAC cells in S-phase of the cell cycle within 24 hours (FIGS. 7A and 7B). To corroborate the impact of CPSF3 knockdown on cell cycle, CPSF3 was transiently knocked-down with siRNA in Panc1 and HPNE cells (FIGS. 13D, 7C). CPSF3 knockdown induced cell cycle arrest in Panc1 cells with minimal effect on HPNE cells (FIGS. 7D and 7E). However, unlike CPSF3 inhibition-induced cell cycle arrest at S-phase, CPSF3 knockdown cells arrested at G2. […] To more specifically investigate the timing and extent of S-phase arrest upon JTE-607 treatment, BrdU incorporation was examined in a time-dependent manner (FIG. 7F). […] This is in support of previous reports where histone defects slow the progression of cells during S-phase. Therefore, JTE-607 destabilizes chromatin and attenuates PDAC cell proliferation through S-phase cell cycle arrest.
(§2) Cell cycle analysis. Cells were trypsinized and resuspended in 1×PBS, then fixed with ice-cold 70% ethanol for 1 hour at −20° C. Cells were then washed with cold 1×PBS and incubated with RNaseA (200 μg/ml) at 37° C. for 1 hour. Propidium iodide (40 μg/ml) was then added, incubated for 1 hour in the dark and analyzed by FACS at 488 nm. Data were analyzed by FCS express software (v7.06.0015).

The test system of a further assay is HPNE cells. Nature of the assay: Cell cycle analysis (propidium iodide FACS). In kind it is cell-based, human. The method, then:
as §1, §2

The test system of another assay is MiaPaCa2 cells. The assay can be described thus: Cell cycle analysis (propidium iodide FACS). In kind it is cell-based, human. The following applies: within 24 hours. The method, then: as §1, §2

Here are results for one compound from patent US20230355613A1, “METHODS FOR TREATING PANCREATIC DUCTAL ADENOCARCINOMA” (HEALTH RESEARCH, INC., priority 2022, published 2023).

With `CCOC(=O)[C@H](Cc1ccccc1)NC(=O)c1cc(Cl)c(OCCN2CCN(C)CC2)c(Cl)c1O` [JTE-607], the GFP expression result in the assay on HeLa-TI cells was “induced GFP expression to levels comparable with CBL0137”. Further, the “cell cycle arrest phase” value in the assay with Panc1 cells and in the assay with MiaPaCa2 cells was “S-phase” throughout. Moreover, the cell cycle distribution entry in the assay on HPNE cells is “no impact on cell cycle distribution”.
